Source: patent publication US20100003250A1, “(2-ARYL-7H-PYRROLO[2,3-D]PYRIMIDIN-4-YL)MORPHOLINE COMPOUNDS, THEIR USE AS MTOR KINASE AND PI3 KINASE INHIBITORS, AND THEIR SYNTHESES” (Wyeth, priority 2008, published 2010)

How the values were obtained:
Assay type in all cases: biochemical
mTOR Kinase (FLAG-TOR) = target: T1, mTOR Kinase (FLAG-TOR) (Homo sapiens, UniProt P42345); experiment: mTOR kinase assay, purified enzyme, DELFIA format; conditions: 100 μM ATP, 1.25 μM His6-S6K; read-out: mTOR Kinase Median IC50
T1 construct: FLAG

PI3Kα = PI3Kα (Homo sapiens, UniProt P42336); experiment: PI3K-alpha fluorescence polarization assay; conditions: 20 μM PIP2, 25 μM ATP; read-out: PI3Kα Median IC50
Sequence of PI3Kα (P42336 whole entry, species assumed): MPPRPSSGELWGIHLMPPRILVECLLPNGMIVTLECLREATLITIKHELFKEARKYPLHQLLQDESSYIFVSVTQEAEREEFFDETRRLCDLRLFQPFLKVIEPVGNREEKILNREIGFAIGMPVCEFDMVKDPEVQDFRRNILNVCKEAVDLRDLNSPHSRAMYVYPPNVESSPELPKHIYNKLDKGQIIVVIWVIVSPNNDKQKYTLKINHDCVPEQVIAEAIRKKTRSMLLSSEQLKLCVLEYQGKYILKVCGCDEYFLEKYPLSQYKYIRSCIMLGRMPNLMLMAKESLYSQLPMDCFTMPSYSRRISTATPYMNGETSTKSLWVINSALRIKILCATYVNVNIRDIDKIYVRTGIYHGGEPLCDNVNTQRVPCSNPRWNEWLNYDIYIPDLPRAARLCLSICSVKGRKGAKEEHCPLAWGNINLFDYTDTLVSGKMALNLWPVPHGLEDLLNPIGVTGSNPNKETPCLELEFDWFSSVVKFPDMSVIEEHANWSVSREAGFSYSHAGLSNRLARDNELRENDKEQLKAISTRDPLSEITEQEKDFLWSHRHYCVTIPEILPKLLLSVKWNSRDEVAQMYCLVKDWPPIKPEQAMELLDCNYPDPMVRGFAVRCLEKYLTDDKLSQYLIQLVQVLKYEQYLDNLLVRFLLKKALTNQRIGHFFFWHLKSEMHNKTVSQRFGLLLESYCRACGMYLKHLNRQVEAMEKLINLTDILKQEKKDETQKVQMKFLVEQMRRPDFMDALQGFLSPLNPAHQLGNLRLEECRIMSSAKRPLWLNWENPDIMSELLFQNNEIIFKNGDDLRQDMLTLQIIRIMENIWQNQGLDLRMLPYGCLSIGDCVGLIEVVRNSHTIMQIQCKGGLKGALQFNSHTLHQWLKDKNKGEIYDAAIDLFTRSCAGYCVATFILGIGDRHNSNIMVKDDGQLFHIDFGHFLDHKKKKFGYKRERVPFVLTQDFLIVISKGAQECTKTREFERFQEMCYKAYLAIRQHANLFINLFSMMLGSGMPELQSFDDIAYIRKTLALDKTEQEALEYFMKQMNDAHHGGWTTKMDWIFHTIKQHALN
Sequence of PI3Kα (P27986 whole entry partner, species assumed): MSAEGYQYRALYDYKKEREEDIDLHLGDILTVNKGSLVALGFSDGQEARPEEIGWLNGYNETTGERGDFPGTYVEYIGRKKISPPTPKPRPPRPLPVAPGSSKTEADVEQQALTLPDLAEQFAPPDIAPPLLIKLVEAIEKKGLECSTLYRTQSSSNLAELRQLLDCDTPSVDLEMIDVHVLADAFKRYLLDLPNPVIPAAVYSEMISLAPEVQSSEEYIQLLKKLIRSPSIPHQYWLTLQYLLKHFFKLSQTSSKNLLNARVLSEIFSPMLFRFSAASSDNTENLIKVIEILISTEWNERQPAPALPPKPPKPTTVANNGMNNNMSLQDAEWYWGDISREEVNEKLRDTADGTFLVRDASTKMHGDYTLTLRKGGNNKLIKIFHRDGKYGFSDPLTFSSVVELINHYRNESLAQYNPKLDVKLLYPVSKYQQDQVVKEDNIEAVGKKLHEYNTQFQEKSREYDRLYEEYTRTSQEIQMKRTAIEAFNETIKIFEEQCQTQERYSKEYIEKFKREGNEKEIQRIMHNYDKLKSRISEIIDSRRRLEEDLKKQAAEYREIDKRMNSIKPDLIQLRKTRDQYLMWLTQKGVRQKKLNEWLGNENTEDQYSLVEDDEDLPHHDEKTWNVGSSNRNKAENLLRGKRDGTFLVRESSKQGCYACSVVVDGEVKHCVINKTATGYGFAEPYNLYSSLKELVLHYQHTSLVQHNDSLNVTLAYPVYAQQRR

PI3Kγ = PI3Kγ (Homo sapiens, UniProt P48736); experiment: PI3K-gamma fluorescence polarization assay; conditions: 20 μM PIP2, 25 μM ATP; read-out: PI3Kγ Median IC50
Sequence of PI3Kγ (P48736 whole entry, species assumed): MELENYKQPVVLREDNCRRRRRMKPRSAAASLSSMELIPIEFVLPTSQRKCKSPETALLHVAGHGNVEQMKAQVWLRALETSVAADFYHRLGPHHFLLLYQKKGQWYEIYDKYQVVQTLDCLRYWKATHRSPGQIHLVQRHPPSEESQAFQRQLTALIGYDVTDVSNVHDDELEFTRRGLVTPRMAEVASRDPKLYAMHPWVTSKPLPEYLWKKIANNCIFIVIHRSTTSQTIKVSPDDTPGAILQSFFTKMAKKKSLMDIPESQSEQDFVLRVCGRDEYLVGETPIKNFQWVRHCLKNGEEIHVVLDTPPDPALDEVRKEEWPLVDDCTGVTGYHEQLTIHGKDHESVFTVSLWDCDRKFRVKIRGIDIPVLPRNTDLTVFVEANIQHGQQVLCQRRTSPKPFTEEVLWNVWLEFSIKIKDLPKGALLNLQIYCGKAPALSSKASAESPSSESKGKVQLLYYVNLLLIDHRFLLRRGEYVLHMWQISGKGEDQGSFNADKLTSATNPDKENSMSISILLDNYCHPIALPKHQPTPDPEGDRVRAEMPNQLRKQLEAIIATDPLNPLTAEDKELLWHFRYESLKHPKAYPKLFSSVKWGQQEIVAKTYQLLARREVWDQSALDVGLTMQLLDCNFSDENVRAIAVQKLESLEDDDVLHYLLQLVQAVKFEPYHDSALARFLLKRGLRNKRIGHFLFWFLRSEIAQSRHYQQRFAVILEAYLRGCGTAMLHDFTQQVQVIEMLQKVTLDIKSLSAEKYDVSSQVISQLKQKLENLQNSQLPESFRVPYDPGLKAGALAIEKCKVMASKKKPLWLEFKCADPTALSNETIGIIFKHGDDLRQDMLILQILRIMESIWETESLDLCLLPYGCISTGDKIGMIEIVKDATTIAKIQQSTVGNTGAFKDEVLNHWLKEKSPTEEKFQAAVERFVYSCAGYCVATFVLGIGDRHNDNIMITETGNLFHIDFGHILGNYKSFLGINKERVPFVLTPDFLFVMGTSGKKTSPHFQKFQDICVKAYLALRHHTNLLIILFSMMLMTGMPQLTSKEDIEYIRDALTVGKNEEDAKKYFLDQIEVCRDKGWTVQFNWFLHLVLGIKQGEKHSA
Procedure: PI3K-alpha and PI3K-gamma Fluorescence Polarization Assay Protocols
The reaction buffer was 20 mM HEPES pH 7.5, 2 mM MgCl2, 0.05% CHAPS, and 0.01% βME (added fresh). The substrate solution was 40 μM PIP2 (diC8, Echelon, Salt Lake City Utah cat # P-4508, 1 mM in water) and 50 μM ATP in the reaction buffer. Nunc 384-well black polypropylene fluorescent plates were used for PI3K assays. The assay is run by putting 9.5 μl of freshly diluted enzyme in the reaction buffer per well, adding 0.5 μl of diluted drug or DMSO, and mixing. Then 10 μl of the substrate solution is added to each well to start the reaction. A final concentration of 20 μM PIP2 and 25 μM ATP in the reaction was used. Reactions were allowed to proceed for 30-60 minutes at room temperature. After 30-60 minutes, 20 μl of a solution of 10 nM TAMRA detector (Red detector probe-Echelon) and 2.5 μM of GST-murineGRP (1.5 mg/ml in 17% glycerol) was added per well to stop the reaction. The resulting solution was mixed well and allowed to stand for 90-110 minutes before reading plate. Assay Plates were read on Perkin-Elmer Envision plate readers with appropriate filters for Tamra [BODIPY-TMRI(1,3,4,5)P4]. Data obtained were used to calculate enzymatic activity and enzyme inhibition by inhibitor compounds. It is important to keep Red probe solutions dark. This procedure is adapted from Echelon Biosciences Inc procedure for their PI3-Kinase fluorescence polarization activity Assay kit Product number K-1100.

| Compound | IC50 (mTOR Kinase (FLAG-TOR)) [nM] | IC50 (PI3Kα) [nM] | IC50 (PI3Kγ) [nM] |
| --- | --- | --- | --- |
| CCn1ccc2c(N3CCOCC3)nc(-c3ccc(NC(=O)Nc4ccc(C(=O)N5CCC(N6CCOCC6)CC5)cc4)cc3)nc21 [Compound 77, 1-[4-(7-ethyl-4-morpholin-4-yl-7H-pyrrolo[2,3-d]pyrimidin-2-yl)phenyl]-3-{4-[(4-morpholin-4-ylpiperidin-1-yl)carbonyl]phenyl}urea] | 1.75 | 5.5 | 64 |
| CN(C)CCn1ccc2c(N3CCOCC3)nc(-c3ccc(NC(=O)NCCc4c[nH]c5ccccc45)cc3)nc21 [Compound 18, 1-(4-{7-[2-(dimethylamino)ethyl]-4-morpholin-4-yl-7H-pyrrolo[2,3-d]pyrimidin-2-yl}phenyl)-3-[2-(1H-indol-3-yl)ethyl]urea] | 102 | 1400 | 2180 |
| O=C(Nc1nc2cc(-c3nc(N4CCOCC4)c4ccn(CC(F)(F)F)c4n3)ccc2[nH]1)c1ccncc1 [Compound 47, N-{5-[4-morpholin-4-yl-7-(2,2,2-trifluoroethyl)-7H-pyrrolo[2,3-d]pyrimidin-2-yl]-1H-benzimidazol-2-yl}isonicotinamide] | 300 | 1080 | 5230 |
| CCn1ccc2c(N3CCOCC3)nc(-c3ccc(NC(=O)Nc4ccc(C(=O)N5CCN(C6CCCC6)CC5)cc4)cc3)nc21 [Compound 73, 1-{4-[(4-cyclopentylpiperazin-1-yl)carbonyl]phenyl}-3-[4-(7-ethyl-4-morpholin-4-yl-7H-pyrrolo[2,3-d]pyrimidin-2-yl)phenyl]urea] | 3.35 | 6.5 | 35 |
| c1cc(-c2nc(N3CCOCC3)c3cc[nH]c3n2)c2cn[nH]c2c1 [Compound 3, 2-(1H-indazol-4-yl)-4-morpholin-4-yl-7H-pyrrolo[2,3-d]pyrimidine] | 1200 | 830 | 10800 |
| COC(=O)c1ccc(NC(=O)Nc2ccc(-c3nc(N4CCOCC4)c4ccn(CC(F)(F)F)c4n3)cc2)cc1 [Compound 50, methyl 4-[({4-[4-morpholin-4-yl-7-(2,2,2-trifluoroethyl)-7H-pyrrolo[2,3-d]pyrimidin-2-yl]phenyl}carbamoyl)amino]benzoate] | 4.9 | 8710 | > 10000 |
| Cn1ccc2c(N3CCOCC3)nc(-c3ccc(NC(=O)Nc4cccnc4)cc3)nc21 [Compound 44, 1-[4-(7-methyl-4-morpholin-4-yl-7H-pyrrolo[2,3-d]pyrimidin-2-yl)phenyl]-3-pyridin-3-ylurea] | 1.9 | 26 | 144 |
| O=C(Nc1ccncc1)Nc1ccc(-c2nc(N3CCOCC3)c3ccn(CCNCCc4cnc[nH]4)c3n2)cc1 [Compound 30, 1-{4-[7-(2-{[2-(1H-imidazol-5-yl)ethyl]amino}ethyl)-4-morpholin-4-yl-7H-pyrrolo[2,3-d]pyrimidin-2-yl]phenyl}-3-pyridin-4-ylurea] | 10.7 | 14 | 245 |
| CCn1ccc2c(N3CCOCC3)nc(-c3ccc(NC(=O)Nc4ccc(C(=O)N5CCSCC5)cc4)cc3)nc21 [Compound 71, 1-[4-(7-ethyl-4-morpholin-4-yl-7H-pyrrolo[2,3-d]pyrimidin-2-yl)phenyl]-3-[4-(thiomorpholin-4-ylcarbonyl)phenyl]urea] | 4.2 | 3.5 | 39 |

These reach a lower IC50 (mTOR Kinase (FLAG-TOR)). Values come first.

| IC50 (mTOR Kinase (FLAG-TOR)) [nM] | IC50 (PI3Kα) [nM] | IC50 (PI3Kγ) [nM] | Compound |
| --- | --- | --- | --- |
| 0.56 | < 2.4 | 25 | CCn1ccc2c(N3CCOCC3)nc(-c3ccc(NC(=O)Nc4ccc(C(=O)NCCN(C)C)cc4)cc3)nc21 [Compound 62, N-[2-(dimethylamino)ethyl]-4-({[4-(7-ethyl-4-morpholin-4-yl-7H-pyrrolo[2,3-d]pyrimidin-2-yl)phenyl]carbamoyl}amino)benzamide] |
| 1.1 | 1.9 | 16 | CN1CCN(C(=O)c2ccc(NC(=O)Nc3ccc(-c4nc(N5CCOCC5)c5ccn(CC(F)(F)F)c5n4)cc3)cc2)CC1 [Compound 54, 1-{4-[(4-methylpiperazin-1-yl)carbonyl]phenyl}-3-{4-[4-morpholin-4-yl-7-(2,2,2-trifluoroethyl)-7H-pyrrolo[2,3-d]pyrimidin-2-yl]phenyl}urea] |
| 0.8 | 2.1 | 24 | CCn1ccc2c(N3CCOCC3)nc(-c3ccc(NC(=O)Nc4ccc(C(=O)N5CCC(N6CCCC6)CC5)cc4)cc3)nc21 [Compound 69, 1-[4-(7-ethyl-4-morpholin-4-yl-7H-pyrrolo[2,3-d]pyrimidin-2-yl)phenyl]-3-{4-[(4-pyrrolidin-1-ylpiperidin-1-yl)carbonyl]phenyl}urea] |
| 1.09 | 1.1 | 20 | CCn1ccc2c(N3CCOCC3)nc(-c3ccc(NC(=O)Nc4ccc(C(=O)N5CCC(N(C)C)CC5)cc4)cc3)nc21 [Compound 65, 1-(4-{[4-(dimethylamino)piperidin-1-yl]carbonyl}phenyl)-3-[4-(7-ethyl-4-morpholin-4-yl-7H-pyrrolo[2,3-d]pyrimidin-2-yl)phenyl]urea] |
| 0.86 | 14.5 | 120 | CCn1ccc2c(N3CCOCC3)nc(-c3ccc(NC(=O)Nc4ccc(C(=O)O)cc4)cc3)nc21 [Compound 60, 4-({[4-(7-ethyl-4-morpholin-4-yl-7H-pyrrolo[2,3-d]pyrimidin-2-yl)phenyl]carbamoyl}amino)benzoic acid] |
| 0.61 | < 1.8 | 34 | CC(C)n1ccc2c(N3CCOCC3)nc(-c3ccc(NC(=O)Nc4ccc(C(=O)N(C)CCN(C)C)cc4)cc3)nc21 [Compound 85, N-[2-(dimethylamino)ethyl]-4-({[4-(7-isopropyl-4-morpholin-4-yl-7H-pyrrolo[2,3-d]pyrimidin-2-yl)phenyl]carbamoyl}amino)-N-methylbenzamide] |
| 1.4 | 3.5 | 28 | CCn1ccc2c(N3CCOCC3)nc(-c3ccc(NC(=O)Nc4ccc(C(=O)N5CCC(N6CCCCC6)CC5)cc4)cc3)nc21 [Compound 72, 1-[4-(1,4′-bipiperidin-1′-ylcarbonyl)phenyl]-3-[4-(7-ethyl-4-morpholin-4-yl-7H-pyrrolo[2,3-d]pyrimidin-2-yl)phenyl]urea] |
| 0.3 | 1.1 | 24 | CN(C)CCNC(=O)c1ccc(NC(=O)Nc2ccc(-c3nc(N4CCOCC4)c4ccn(CC(F)(F)F)c4n3)cc2)cc1 [Compound 52, N-[2-(dimethylamino)ethyl]-4-[({4-[4-morpholin-4-yl-7-(2,2,2-trifluoroethyl)-7H-pyrrolo[2,3-d]pyrimidin-2-yl]phenyl}carbamoyl)amino]benzamide] |
| 0.72 | 2 | 38 | CCn1ccc2c(N3CCOCC3)nc(-c3ccc(NC(=O)Nc4ccc(C(=O)NCCN5CCCC5)cc4)cc3)nc21 [Compound 76, 4-({[4-(7-ethyl-4-morpholin-4-yl-7H-pyrrolo[2,3-d]pyrimidin-2-yl)phenyl]carbamoyl}amino)-N-(2-pyrrolidin-1-ylethyl)benzamide] |
| 0.8 | 4 | 38 | CC(C)n1ccc2c(N3CCOCC3)nc(-c3ccc(NC(=O)Nc4ccc(C(=O)N5CCC(N(C)C)CC5)cc4)cc3)nc21 [Compound 84, 1-(4-{[4-(dimethylamino)piperidin-1-yl]carbonyl}phenyl)-3-[4-(7-isopropyl-4-morpholin-4-yl-7H-pyrrolo[2,3-d]pyrimidin-2-yl)phenyl]urea] |
